Experimental data reported in US20120077761A1, “COMPOSITIONS AND METHODS FOR THE PREVENTION AND TREATMENT OF CORONARY HEART DISEASES” (Generex Pharmaceuticals, Inc, priority 2009, published 2012).

What was measured:
[1] = tested on: human aorta endothelial cells (HAEC); assay: capillary-like tube formation of human aorta endothelial cells on fibrin matrix; conditions: for Approx. No. of Tubes: HAEC on fibrin matrix, Ctrl 9; for Approx. No. of Tubes / capillary-like networks compared to vehicle-treated cells: 22 hours; for capillary-like networks compared to vehicle-treated cells: HAEC
Method: Cells were incubated at 37° C. and equilibrated in 95% air-5% CO2. Fibrin matrices were prepared by polymerization of fibrinogen solution (5 mg fibrinogen/ml serum-free medium) using low concentrations of α-thrombin (2.5 U/ml). After polymerization, gels were soaked in culture medium containing 10% FBS for 2 h at 37° C. to inactivate the thrombin. HAEC were seeded on the surface of the three-dimensional matrix in 96-well plates in Ham's F-12 medium and cultured for 22 hours with different concentrations of angioenhancin compounds of formula I and formula II in a growth medium. Non-treated control was added with equivalent amount of growth medium. Images were captured and the angiogenic properties were determined by calculating the total number of tubes formed.

[2] = tested on: human umbilical vein endothelial cells (HUVEC); assay: differentiation of human umbilical vein endothelial cells (HUVEC); format: cell-based; conditions: for differentiation of HUVEC, dose dependence: versus vehicle treated cells (proliferation, no differentiation)
Source text: FIG. 2. illustrates a series of micrographs showing differentiation of vessel endothelial cells (HUVEC) induced by angioenhancin compounds of formula I and II. Panels a & b represent the vehicle treated cells showing proliferation but no sign of differentiation.

ischemic hearts = assay: echocardiography assessment of heart function in cCHD rats; format: in vivo, SD rats; conditions: 5 mg/kg, echocardiography day 2, 7 and 14, progressively lowered in vehicle treated rats
Method: (§1) The subclinical cCHD rat model was produced as described. Briefly, male Sprague-Dawley (SD) rats, weighing 150-200 g, were used. Following proper anesthesia, left thoracotomy was performed on the animals. The pericardium was opened and a probe or surgical suture thread (11-0) was placed onto the epicardium along the LAD. […] The experimental rats with ST segment constantly depressed above 0.1 mV were selected and randomly divided into two groups. […] The rats in vehicle-treated group (n=6) were treated with equivalent period and amount of H2O. For the sham operation group (n=6), left thoracotomy was performed and the pericardium was opened but with no LAD ligation.
Echocardiography Assessment of Heart Function. In all, 12 SD rats received baseline echocardiography before any experimental procedures. Echocardiography was recorded under controlled anesthesia using a Toshiba Aplio XG Echocardiography with PLT-1202S linear array transducer S10-MHz phased-array transducer. M-mode tracing and 2-dimensional (2D) echocardiography images were recorded from the parasternal long- and short-axis views. Short axis view was at the papillary muscles level. Left ventricular end-systolic and end-diastolic dimensions, as well as systolic and diastolic wall thickness, were measured from the M-mode tracings by using the leading-edge convention of the American Society of Echocardiography. For each M-mode measurement, at least three consecutive cardiac cycles were sampled. All rats in both groups received echocardiography measurements on day 2, 7 and 14 post ligation.

[3] = tested on: ischemic zone of myocardium; assay: subclinical chronic coronary heart disease (cCHD) rat model (partial LAD ligation), neovascularization in ischemic zone; format: in vivo, Sprague-Dawley (SD) rats; conditions: for vascular density in treated ischemic hearts versus vehicle-treated hearts (FIG. 4): 2 weeks post ligation; for chronic ischemic heart histology, 2 weeks post LAD partial ligation (FIG. 4): compared with vehicle-treated hearts (C1)
Method: as §1
Measurement of neovascularization in the ischemic zone. Left ventricles from the rats sacrificed on day 14 post-ligation were removed and sliced from apex to base in 3 transverse slices. The slices were fixed in formalin and embedded in paraffin. Vascular density was determined on the histology section samples by counting the number of vessels within the ischemic zone using a light microscope under a high power field (HPF) (40×). Eight random and non-overlapping HPFs within the ischemic field were used for counting all the vessels in each section. The number of vessels in each HPF was averaged and expressed as the number of vessels per HPF. Vascular counts were performed by two investigators in a blind fashion.
The capillary density in the ischemic zone of the angioenhancin treated myocardium was on average 12 capillaries (12±3.8) filled with blood cells per HPF, calculated from 8 randomly selected view fields on each of the 3 slides from 6 angioenhancin treated hearts on day 14.

VEGF, VEGFR, EGF and FGF = assay: RT-PCR of angiogenesis-associated genes in treated heart tissues and endothelial cells; format: in vivo
infarcted hearts = assay: myocardial infarction rat model (permanent LAD ligation), neovascularization in infarct zone; format: in vivo, Sprague-Dawley rats; conditions: vehicle-treated: mainly fibrosis
Method: Myocardial infarction (MI) animal model was induced in male Sprague-Dawley rats (300-350 g) by permanent ligation of the left anterior descending (LAD) coronary artery. The experimental rats were anesthetized with intraperitoneal pentobarbital (50 mg/kg), intubated, and mechanically ventilated with room air. The angioenhancin compound of formula I or formula II (2 mg/kg), dissolved in water (0.5 ml), was orally administrated to MI rats (n=6) for one day post ligation, daily for two weeks with equivalent amount of water to the vehicle-treated rats (n=6). For sham-operated rats (n=5), thoracotomy was performed without ligation. Animals were sacrificed after final echocardiography measurements.
Evaluation of neovascularization in infarcted hearts. Echocardiography was recorded on day 7 and 14 post operations. The hearts of the sacrificed rats were removed and washed with PBS. For histological studies, the left ventricles of the experimental rats were removed and cut from apex-to-base in 3 transverse slices and embedded in paraffin. To quantify the density of capillaries in infarct zones, the vessels were counted and averaged in 6 randomly selected high power view fields (HPF, 40×) on each section. Blinded capillary counts were performed on 6 hearts per group by two investigators. The results were expressed as mean±SD capillaries per HPF.

Row | Compound | Approx. No. of Tubes ([1]; 5 μg/ml) | Approx. No. of Tubes ([1]; 10 μg/ml) | Approx. No. of Tubes ([1]; 20 μg/ml) | growth of capillary-like tubes versus non-treated control (FIG. 3) ([1]; HAEC passage 7, 22 hours, concentration not given) | capillary-like networks compared to vehicle-treated cells [1] | differentiation of HUVEC (cell phenotype, FIG. 2) ([2]; 10 μg/ml) | differentiation of HUVEC (cell phenotype, FIG. 2) ([2]; 20 μg/ml) | differentiation of HUVEC (cell phenotype, FIG. 2) ([2]; 40 μg/ml) | differentiation of HUVEC, dose dependence [2] | left ventricle ejection fraction (LVEF) (ischemic hearts) | left ventricle fraction shortening (LVFS) (ischemic hearts) | vascular density in treated ischemic hearts versus vehicle-treated hearts (FIG. 4) [3] | chronic ischemic heart histology, 2 weeks post LAD partial ligation (FIG. 4) [3] | expressions of angiogenesis-associated genes (VEGF, VEGFR, EGF and FGF), RT-PCR (VEGF, VEGFR, EGF and FGF) | infarcted region histology, 2 weeks post LAD ligation (FIG. 4) (infarcted hearts) | growth of capillary-like tube structures versus non-treated control (FIG. 3) ([1]; 5 μg/ml, HAEC passage 7, 22 hours)
1 | O=C(OC1OC2COC(=O)c3cc(O)c(O)c(O)c3-c3c(cc(O)c(O)c3O)C(=O)OC2C2OC(=O)c3cc(O)c(O)c(O)c3-c3c(cc(O)c(O)c3O)C(=O)OC12)c1cc(O)c(O)c(O)c1 (centres unmarked) [Formula II, Potentillin] | ~67 | ~46 | ~45 | enhanced growth of capillary-like tubes more than that in non-treated control, but less than that in angioenhancin-I treated | formed more capillary-like networks | refractive and elongated cells | thin and elongated phenotype with the typical characteristic of differentiation of vessel endothelial cells | thin, elongated and circled phenotype forming tube-like structures | enhanced differentiation of HUVEC in a dose dependent manner | progressively restored | progressively restored | higher | more blood vessels | up-regulated | many newly formed vessels filled with red blood cells observed | 
2 | pedunculagin [Formula I] | ~45 | ~57 | ~68 |  | formed more capillary-like networks |  | enhanced differentiation showing thin and elongated cells | thin and elongated phenotype forming tube-like structures | enhanced differentiation of HUVEC in a dose dependent manner | progressively restored | progressively restored | higher | more blood vessels | up-regulated | Many newly formed collateral vessels filled with red blood cells were found | enhanced growth of capillary-like tube structures much more than that in non-treated control
